Experimental data from US20050256161A1, “Melanin concentrating hormone receptor antagonists” (priority 2003, published 2005).
pIC50, pKi: −log10 of the molar value.

Experiments:
human MCH receptor = molecular target: T1, human MCH receptor (Homo sapiens, UniProt Q99705); assay: hMCH FLIPR calcium mobilization functional assay; format: cell-based
T1 construct: expressed in transfected cells

[1] = molecular target: T2, rat MCH 1 receptor (rMCH1R) (Rattus norvegicus, UniProt P97639); assay: Ligand binding assay (125I native-MCH), rMCH; conditions: rMCH1R expressed in HEK 293, membranes, 0.2 nM 125I native-MCH
T2 construct: expressed in transfected cells; host or cells: HEK 293 (membrane preparation)
Experimental: (§1) Human embryonic kidney cells (293 total) expressing either human, rat, or mouse MCH receptor were harvested from 150 mm culture dishes using PBS. Spinning at 1500 rpm for 2 minutes initially pelleted cells. The resulting pellet was then homogenized in 15 mL ice cold sucrose buffer (25 mM HEPES, 0.3 M sucrose, pH 7.4) with a motorized, glass fitted, Teflon® homogenizer. The homogenate was centrifuged at 48,000×g at 4° C. for 10 minutes, resuspended in 15 mL assay buffer (25 mM HEPES, 10 mM MgCl2, 0.2% BSA, 0.1 mg/mL STI, 0.1 mg/mL Pefabloc®, 1 μM Phosphoramidon, pH 7.4) with a Tissue-Tearor® (Biospec Products) and centrifuged again at 48,000×g for 10 minutes. The pellet was homogenized for a third time in 15 mL assay buffer using the Tissue-Tearor® and again centrifuged at 48,000×g for 10 minutes. The resulting pellet was resuspended in assay buffer at a wet weight concentration of 10-20 mg/mL.
(§2) Binding assays were determined as described below using mouse, rat or human MCH 1 receptors (mMCH1R, rMCH1R, and hMCH1R, respectively) expressed in HEK 293; IC50 values were calculated.
(§3) Binding assays were performed in 96-well U-bottom plates. Membranes (100 μg tissue) were incubated at 30° C. for 90 minutes in assay buffer with various peptides in the presence of 0.2 nM 125I native-MCH (Perkin-Elmer Life Sciences, Boston, Mass.) in 100 μL total volume. Non-specific binding was assessed in the presence of 1 μM cold native-MCH. The reaction was terminated by rapid filtration through Unfilter-96 GF/C glass fiber filter plates (FilterMate® 196 Harvester, Packard Instrument Co., Meriden, Conn.) pre-soaked in PBS/0.5% BSA, followed by three washes with 300 μL ice-cold water. Bound radioactivity was determined using a TopCount® microplate scintillation and luminescence counter (Packard Instrument Co., Meriden, Conn.). Nonlinear regression analyses of drug concentration curves were performed using GraphPad Prism® (GraphPad Software, Inc., San Diego, Calif.).

rat MCH1 receptor = molecular target: T3, rat MCH1 receptor (Rattus norvegicus, UniProt P97639); assay: rMCH FLIPR calcium mobilization functional assay; format: cell-based; conditions: CHOK1-Gqi cells
T3 construct: expressed in transfected cells
Experimental: Pharmacological analyses were conducted using either a HT-PS100 device (Axiom Biotechnologies, San Diego, Calif.), which provides high-resolution dose-response fluorometric measurements of [Ca^++]i mobilization, or using a FLIPR® device (Molecular Devices, Sunnyvale, Calif.).
Materials: Pharmacological analysis was conducted using a FLIPR® device (Molecular Devices, Sunnyvale, Calif.). CHOK1-Gqi cells were stably transfected with the rat MCH1 receptor and maintained under G418 antibiotic pressure. FLIPR® assay buffer consisted of phenol red-free DMEM+2.5 mM probenecid. MCH peptide (Amgen, Inc.) was reconstituted in assay buffer and served as the positive agonist control for all experiments. Test compounds were prepared as 10 mM stocks in 100% DMSO and diluted to a top end working concentration of 10 μM in 96 well black, flat bottom, collagen-I coated plates (Becton Dickinson, Bedford, Mass.).
Methods: CHOK1-Gqi cells stably expressing MCH1R were maintained in Dulbeco's modified Eagle's medium (GIBCO/Life Technologies, Rockville, Md.) supplemented with 2 mM glutamine and 10% dialyzed fetal bovine serum (HyClone, Logan, Utah) at 37° C., 5% CO2. Cells were harvested by 10′ treatment with Versene (GIBCO/Life Technologies) followed by trituration, washing twice with cold (4° C.) hybridoma medium (Serum/Protein free, with L-glutamine, sodium bicarbonate, MOPS buffer) (Sigma-Aldrich Corp, St. Louis, Mo.) and replated onto 96 well black, flat bottom, collagen-I coated plates to a density of 10,000 cells/well. The cells were then loaded with the fluorescent calcium indicator Fura-2 (Molecular Probes, Eugene, Oreg.) at 1.6 μM for 60′ at room temperature. The loaded cells were then washed twice with 90 μl/well of wash buffer (1×HBSS, 20 mM HEPES, 2.5 mM probenecid).
Receptor-stimulated intracellular calcium responses were detected using FLIPR® by monitoring increases in the Fura-2 fluorescence response.
Test compounds were screened for MCH1R activity in the FLIPR® for both agonist and antagonist action. Agonist mode challenges were conducted at a maximum gradient concentration of 1 μM. Antagonist activity was tested by 10 min pre-incubation of cells at a compound concentration of defined to be 300× the EC50 of MCH (typically 1 μM), with subsequent introduction of MCH at a concentration 5-fold of EC50 as determined in preliminary experiments.
Schild experiments were conducted on the FLIPR® for selected compounds by co-administering antagonist compounds together with MCH peptide. Several fixed concentrations of antagonist compounds were prepared in 10-fold increments, and presented to the cells in a gradient of increasing MCH concentration. Values for compound pA2 were calculated by linear regression of MCH EC50s as a function of antagonist concentration.

[2] = molecular target: T4, human MCH 1 receptor (hMCH1R) (Homo sapiens, UniProt Q99705); assay: Ligand binding assay (125I native-MCH), hMCH; conditions: hMCH1R expressed in HEK 293, membranes, 0.2 nM 125I native-MCH
T4 construct: expressed in transfected cells; host or cells: HEK 293 (membrane preparation)
Experimental: as §1, §2, §3

T2 sequence (P97639 whole entry): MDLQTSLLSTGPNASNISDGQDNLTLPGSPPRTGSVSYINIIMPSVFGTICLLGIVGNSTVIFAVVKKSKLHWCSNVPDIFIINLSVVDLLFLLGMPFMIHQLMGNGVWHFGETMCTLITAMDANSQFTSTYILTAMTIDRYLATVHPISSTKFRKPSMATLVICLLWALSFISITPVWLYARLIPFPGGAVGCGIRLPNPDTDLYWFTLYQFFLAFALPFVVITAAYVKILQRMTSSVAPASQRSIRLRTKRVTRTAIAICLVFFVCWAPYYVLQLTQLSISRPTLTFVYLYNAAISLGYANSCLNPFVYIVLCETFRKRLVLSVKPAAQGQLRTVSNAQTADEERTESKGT
T3 sequence (P97639 whole entry): as above
T4 sequence (Q99705 whole entry): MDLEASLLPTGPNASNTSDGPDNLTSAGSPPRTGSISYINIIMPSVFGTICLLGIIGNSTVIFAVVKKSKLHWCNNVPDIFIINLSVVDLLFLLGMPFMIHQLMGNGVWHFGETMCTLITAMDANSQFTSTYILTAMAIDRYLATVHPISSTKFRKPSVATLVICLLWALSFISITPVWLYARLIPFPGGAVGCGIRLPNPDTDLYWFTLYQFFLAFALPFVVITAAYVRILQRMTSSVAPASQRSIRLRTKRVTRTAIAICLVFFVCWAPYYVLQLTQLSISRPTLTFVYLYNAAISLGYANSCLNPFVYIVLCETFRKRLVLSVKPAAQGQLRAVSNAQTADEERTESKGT
T1 sequence (Q99705 whole entry): as above

pKi (human MCH receptor; threshold 100 μM or less)	pIC50 ([1]; threshold 100 nM or less)	pIC50 ([1]; threshold 100 μM or less)	pKi (rat MCH1 receptor; threshold 100 μM or less)	pKi (human MCH receptor; threshold 100 nM or less)	pKi (rat MCH1 receptor; threshold 100 nM or less)	pIC50 ([2]; threshold 100 nM or less)	pIC50 ([2]; threshold 100 μM or less)	SMILES
≥ 4.00	≥ 7.00	≥ 4.00	≥ 4.00	–	–	–	–	O=C(Nc1cccc(F)c1)Nc1cc(C(=O)NCCN2CCCC2)ccc1Oc1cccc(F)c1 [Compound 55, 4-(3-fluorophenoxy)-3-[3-(3-fluorophenyl)ureido]-N-(2-pyrrolidin-1-yl-ethyl)benzamide]
≥ 4.00	≥ 7.00	≥ 4.00	≥ 4.00	≥ 7.00	–	–	–	Cc1ccc(Oc2ccc(C(=O)NCCN3CCCC3)cc2NC(=O)Nc2cccc(F)c2)cc1 [Compound 56, 3-[3-(3-fluorophenyl)ureido]-N-(2-pyrrolidin-1-yl-ethyl)-4-p-tolyloxybenzamide]
≥ 4.00	≥ 7.00	≥ 4.00	≥ 4.00	–	–	–	–	O=C(Nc1cccc(F)c1)Nc1cc(C(=O)NCCN2CCCC2)ccc1Oc1ccc(F)c(F)c1 [Compound 53, 4-(3,4-difluorophenoxy)-3-[3-(3-fluorophenyl)ureido]-N-(2-pyrrolidin-1-yl-ethyl)benzamide]
≥ 4.00	≥ 7.00	≥ 4.00	≥ 4.00	–	–	–	–	O=C(Nc1cccc(F)c1)Nc1cc(C(=O)NCCN2CCCC2)ccc1Oc1ccc(F)cc1 [Compound 54, 4-(4-fluorophenoxy)-3-[3-(3-fluorophenyl)ureido]-N-(2-pyrrolidin-1-yl-ethyl)benzamide]
≥ 4.00	≥ 7.00	≥ 4.00	≥ 4.00	≥ 7.00	–	–	–	Cc1cccc(Oc2ccc(C(=O)NCCN3CCCC3)cc2NC(=O)Nc2cccc(F)c2)c1 [Compound 57]

The remaining lines, values behind:

SMILES	pKi (human MCH receptor; threshold 100 μM or less)	pIC50 ([1]; threshold 100 nM or less)	pIC50 ([1]; threshold 100 μM or less)	pKi (rat MCH1 receptor; threshold 100 μM or less)	pKi (human MCH receptor; threshold 100 nM or less)	pKi (rat MCH1 receptor; threshold 100 nM or less)	pIC50 ([2]; threshold 100 nM or less)	pIC50 ([2]; threshold 100 μM or less)
O=C(Nc1cccc(F)c1)Nc1cc(C(=O)NCCN2CCCC2)ccc1Oc1ccc(Cl)c(Cl)c1 [Compound 52, 4-(3,4-dichlorophenoxy)-3-[3-(3-fluorophenyl)ureido]-N-(2-pyrrolidin-1-yl-ethyl)benzamide]	≥ 4.00	≥ 7.00	≥ 4.00	–	–	–	–	–
Cc1ccc(Oc2ccc(C(=O)NCCN3CCCC3)cc2NC(=O)Nc2ccc(Br)cc2)cc1C [Compound 38, 3-[3-(4-bromophenyl)ureido]-4-(3,4-dimethylpherioxy)-N-(2-pyrrolidin-1-yl-ethyl)benzamide]	≥ 4.00	≥ 7.00	≥ 4.00	≥ 4.00	≥ 7.00	≥ 7.00	≥ 7.00	≥ 4.00
Cc1ccc(Oc2ccc(C(=O)NCCN3CCCC3)cc2NC(=O)Nc2ccc(C(C)C)cc2)cc1C [Compound 34, 4-(3,4-dimethylphenoxy)-3-[3-(4-isopropylphenyl)ureido]-N-(2-pyrrolidin-1-yl-ethyl)benzamide]	≥ 4.00	–	≥ 4.00	≥ 4.00	≥ 7.00	–	≥ 7.00	≥ 4.00
Cc1ccc(Oc2ccc(C(=O)NCCN3CCCC3)cc2NC(=O)NCc2ccccc2)cc1C [Compound 6, 4-[(3,4-dimethylphenyl)oxy]-3-({[(phenylmethyl)amino]carbonyl}amino)-N-(2-(1-pyrrolidinyl)ethyl)benzamide]	≥ 4.00	–	–	≥ 4.00	≥ 7.00	≥ 7.00	≥ 7.00	≥ 4.00
Cc1ccc(Oc2ccc(C(=O)NCCN3CCCC3)cc2NC(=O)Nc2c(C(C)C)cccc2C(C)C)cc1C [Compound 37, 3-[3-(2,6-diisopropylphenyl)ureido]-4-(3,4-dimethylphenoxy)-N-(2-pyrrolidin-1-yl-ethyl)benzamide]	≥ 4.00	–	≥ 4.00	≥ 4.00	–	–	≥ 7.00	≥ 4.00
Cc1cc(Oc2ccc(C(=O)NCCN3CCCC3)cc2NC(=O)Nc2cccc(F)c2)ccc1F [Compound 51, 4-(4-fluoro-3-methylphenoxy)-3-[3-(3-fluorophenyl)ureido]-N-(2-pyrrolidin-1-yl-ethyl)benzamide]	≥ 4.00	≥ 7.00	≥ 4.00	≥ 4.00	≥ 7.00	–	–	–
Cc1ccc(Oc2ccc(C(=O)NCCN3CCCC3)cc2NC(=O)CCc2ccccc2)cc1C [Compound 5, 4-[(3,4-dimethylphenyl)oxy]-3-[(3-phenylpropanoyl)amino]-N-(2-(1-pyrrolidinyl)ethyl)benzamide]	≥ 4.00	–	–	≥ 4.00	–	–	–	≥ 4.00
Cc1ccc(Oc2ccc(C(=O)NCCN3CCCC3)cc2NC(=O)Nc2ccccc2Cl)cc1C [Compound 41, 3-[3-(2-chlorophenyl)ureido]-4-(3,4-dimethylphenoxy)-N-(2-pyrrolidin-1-yl-ethyl)benzamide]	≥ 4.00	≥ 7.00	≥ 4.00	≥ 4.00	≥ 7.00	≥ 7.00	≥ 7.00	≥ 4.00
Cc1ccc(Oc2ccc(C(=O)NCCN3CCCC3)cc2NC(=O)Nc2c(C)cccc2C)cc1C [Compound 35, 4-(3,4-dimethylphenoxy)-3-[3-(2,6-dimethylphenyl)ureido]-N-(2-pyrrolidin-1-yl-ethyl)benzamide]	≥ 4.00	–	≥ 4.00	≥ 4.00	≥ 7.00	–	–	≥ 4.00
